Laboratory results: patent publication US8569298B2, “Pyridine compounds” (Astrazeneca AB, priority 2008, dated 2013)

Molecular target: T1, FAK enzyme (6 His tagged kinase domain, GenBank NP—722560) (Homo sapiens, UniProt Q05397)
T1 construct: 6 His; made in house; host or cells: insect cell culture infected with baculovirus
Assay: In vitro enzyme assay (a): sandwich ELISA of FAK tyrosine kinase activity on polyGAT peptide, TMB colorimetric endpoint
Format: biochemical
Details: in vitro Enzyme Assay test (a); ATP at Km; geometric mean of n > 1 measurements, values marked * tested once
Procedure: (a) In Vitro Enzyme Assay
A sandwich ELISA assay with a 3,3′,5,5′-tetramethyl benzidine (TMB) colorimetric endpoint was used in order to determine the level of effect of selected compounds on inhibition of FAK protein tyrosine kinase enzyme activity. A synthetic tyrosine containing peptide is coated onto a plastic surface, the level of phosphorylation of these tyrosine residues by the kinase enzyme in the presence of inhibitors is measured using an antibody that binds specifically to phosphorylated tyrosine residues. The amount of antibody bound to substrate is proportional to the level of enzyme catalysis.
Assay Protocol to Identify Inhibitors of Focal Adhesion Kinase (FAK).
A PlateMate Plus™ 384 automated liquid handling unit with a 100 μl disposable tip head was used to make all the non compound reagent additions and a Tecan 384PW plate washer with 384 head was used for all wash steps. Initially Matrix 384 well polystyrene plates (Cat #:4311) were coated with 40 μl/well of a 0.0375 mg/ml solution of synthetic poly peptide (polyGAT, Sigma Cat #:P3899) dissolved in phosphate buffered saline (PBS). Plates were stored overnight at 4° C. Immediately before use the coating solution was aspirated out and each well washed with 2×100 μl of PBS+0.05% Tween 20. To remove surplus phosphate, the wells were then washed with 2×100 μl 50 mM HEPES buffer pH 7.4. Plates were blotted dry before the addition of compounds. Compounds were tested over a 12 point dose range, a Labcyte Echo 550 was used to dispense compounds in nl volumes and back fill with DMSO. The final concentration of compound in the assay was dependent on the starting concentration of compound. For a 10 mM stock compound the final assay dose ranged from 100 μM down to […]. Control wells containing 120 nl DMSO (Max) or 120 nl of 10 mM staurosporine (LC Laboratories, Boston, USA Cat #: S-9300) (Min) were included in each plate. 10 ul of 5% dimethyl sulfoxide v/v (DMSO, Fisher Scientific) was added to each well immediately prior to addition of 10 μl of a co-factor solution containing 80 mM MgCl2 (Sigma Cat #: M1028); 80 mM MnCl2 (Sigma Cat #: M1787); ATP at a concentration calculated to enable the initial reaction velocity to progress at half the maximum velocity (Km for ATP) (Sigma Cat #:A7699). A final addition of 20 μl of enzyme solution containing 100 mM HEPES pH7.4; 0.2 mM sodium vanadate (Sigma Cat #:S6508); 0.2 g/l bovine serum albumin (BSA, Sigma Cat #: A7888); 0.2 mM dithioreitol (Sigma Cat #: 5545); 0.1% Triton X100 (Sigma Cat #:X100); FAK enzyme (20 μl/ml) was made to each well to start the assay running FAK enzyme was generated from an insect culture infected with baculo virus containing the DNA sequence encoding the 6 His tagged kinase domain (GenBank NP_722560).
Plates were left at room temperature for 25 minutes before 10 μl of 500 mM ethylenediaminetetraacetic acid (EDTA) was added to stop the assay and the wells were immediately washed 3×100 μl with PBS+0.05% Tween 20. A 4G10 antibody (Millipore Cat #: 16-105; 16-184) with a directly conjugated horse radish peroxidase (HRP) was used to detect the phosphorylation of the substrate by the FAK. 40 μl of PBS+0.05% Tween 20 containing 0.5% BSA and 0.1 μl/ml antibody was added to each well and left for 1 hour at room temperature to allow the antibody to bind. After this period the wells were again washed with 3×100 μl of PBS+0.05% Tween 20. TMB (Sigma Cat #: T2885) was used as a substrate for the HRP. Phosphate-citrate buffer was made up using capsules provided by Sigma (Cat #: P4922) following the manufacturers guidelines. TMB was dissolved at a concentration of 1 mg/ml in DMSO and let down to a final concentration of 0.05 mg/ml with the phosphor-citrate buffer. 40 μl of the TMB solution was added to each assay well and left for 30 minutes for the blue colour to develop. […]

T1 sequence (Q05397 422-680 limits assumed): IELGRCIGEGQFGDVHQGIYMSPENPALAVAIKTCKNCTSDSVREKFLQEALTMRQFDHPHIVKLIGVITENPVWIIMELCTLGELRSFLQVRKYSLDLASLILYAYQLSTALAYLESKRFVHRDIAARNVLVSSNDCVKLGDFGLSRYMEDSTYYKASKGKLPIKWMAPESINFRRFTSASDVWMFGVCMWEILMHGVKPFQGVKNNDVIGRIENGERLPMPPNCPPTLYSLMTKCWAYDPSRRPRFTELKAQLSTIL

Q: For `CNC(=O)c1ccccc1Nc1cc(Nc2cnn(CC(=O)N3CCCN(C)CC3)c2)ncc1Cl` [Example 3.04, 2-[[5-chloro-2-[[1-[2-(4-methyl-1,4-diazepan-1-yl)-2-oxo-ethyl]pyrazol-4-yl]amino]-4-pyridyl]amino]-N-methyl-benzamide], which IC50 is on record?
A: 68 nM

Q: `CNC(=O)c1ccccc1Nc1cc(Nc2cnn(CC(=O)N3CCOCC3)c2)ncc1Cl` [Example 3.05, 2-[[5-chloro-2-[[1-(2-morpholino-2-oxo-ethyl)prazol-4-yl]amino]-4-pyridyl]amino]-N-methyl-benzamide] was tested. Which IC50 did it give?
A: 90 nM

Q: `CNC(=O)c1ccccc1Nc1cc(Nc2cnn(CC(=O)N(C)CCOC)c2)ncc1Cl` [Example 3.06, 2-[[5-chloro-2-[[1-[2-(2-methoxyethyl-methyl-amino)-2-oxo-ethyl]pyrazol-4-yl]amino]-4-pyridyl]amino]-N-methyl-benzamide] was tested. Which IC50 did it give?
A: 99 nM

Q: For `CNC(=O)c1ccccc1Nc1cc(Nc2cnn(CC(=O)N3CCN(C)CC3)c2)ncc1Cl` [Example 3.07, 2-[[5-chloro-2-[[1-[2-(4-methylpiperazin-1-yl)-2-oxo-ethyl]pyrazol-4-yl]amino]-4-pyridyl]amino]-N-methyl-benzamide], which IC50 is on record?
A: 48 nM

Q: Which IC50 does the source give for `CNC(=O)c1ccccc1Nc1cc(Nc2cc(OC)nn2C)ncc1Cl` [Example 3.08, 2-[[5-Chloro-2-[(5-methoxy-2-methylpyrazol-3-yl)amino]pyridin-4-yl]amino]-N-methylbenzamide] here?
A: 60 nM

Q: `CNC(=O)c1ccccc1Nc1cc(Nc2cc(C)nn2C)ncc1Cl` [Example 3.09, 2-[[5-chloro-2-[(2,5-dimethylpyrazol-3-yl)amino]-4-pyridyl]amino]-N-methyl-benzamide] was tested. Which IC50 did it give?
A: 29 nM

Q: Which IC50 does the source give for `CNC(=O)c1ccccc1Nc1cc(Nc2cc(C)n(C)n2)ncc1Cl` [Example 3.10, 2-[[5-chloro-2-[(1,5-dimethylpyrazol-3-yl)amino]-4-pyridyl]amino]-N-methyl-benzamide] here?
A: 45 nM

Q: `CNC(=O)c1ccccc1Nc1cc(Nc2cnn(C)c2)ncc1Cl` [Example 3.11, 2-[[5-chloro-2-[(1-methylpyrazol-4-yl)amino]-4-pyridyl]amino]-N-methyl-benzamide] was tested. Which IC50 did it give?
A: 439 nM

Q: For `CNC(=O)c1ccccc1Nc1cc(Nc2cnn(C3CCN(C)CC3)c2)ncc1Cl` [Example 3.12, 2-[[5-chloro-2-[[1-(1-methyl-4-piperidyl)pyrazol-4-yl]amino]-4-pyridyl]amino]-N-methyl-benzamide], which IC50 is on record?
A: 195 nM

Q: With `CNC(=O)c1ccccc1Nc1cc(Nc2cnn(C3CCN(C(C)=O)CC3)c2)ncc1Cl` [Example 3.13, 2-[(2-[[1-(1-acetyl-4-piperidyl)pyrazol-4-yl]amino]-5-chloro-4-pyridyl]amino]-N-methyl-benzamide] as the compound, how does the IC50 read?
A: 128 nM

Q: With `CNC(=O)c1ccccc1Nc1cc(Nc2cn(C)nc2C)ncc1Cl` [Example 3.14, 2-[[5-chloro-2-[(1,3-dimethylpyrazol-4-yl)amino]-4-pyridyl]amino]-N-methyl-benzamide] as the compound, how does the IC50 read?
A: 45 nM

Q: How did the IC50 turn out when `CNC(=O)c1ccccc1Nc1cc(Nc2cnn(C3CCOCC3)c2)ncc1Cl` [Example 3.15, 2-[[5-chloro-2-[(1-tetrahydropyran-4-ylpyrazol-4-yl)amino]-4-pyridyl]amino]-N-methyl-benzamide] was run?
A: 670 nM

Q: For `CNC(=O)c1ccccc1Nc1cc(Nc2cc(C)[nH]n2)ncc1Cl` [Example 3.16, 2-[[5-Chloro-2-[(5-methyl-1H-pyrazol-3-yl)amino]pyridin-4-yl]amino]-N-methylbenzamide], which IC50 is on record?
A: 93 nM

Q: Which IC50 does the source give for `CNC(=O)c1ccccc1Nc1cc(Nc2cc(C3CC3)[nH]n2)ncc1Cl` [Example 3.17, 2-[[5-chloro-2-[(5-cyclopropyl-1H-pyrazol-3-yl)amino]-4-pyridyl]amino]-N-methyl-benzamide] here?
A: 93 nM

Q: For `CNC(=O)c1ccccc1Nc1cc(Nc2cn(C)cn2)ncc1Cl` [Example 3.18, 2-[[5-chloro-2-[(1-methylimidazol-4-yl)amino]-4-pyridyl]amino]-N-methyl-benzamide], which IC50 is on record?
A: 275 nM

Q: For `CNC(=O)c1ccccc1Nc1cc(Nc2cnn(C3CCNCC3)c2)ncc1Cl` [Example 3.19, 2-[[5-Chloro-2-[[1-(4-piperidyl)pyrazol-4-yl]amino]-4-pyridyl]amino]-N-methyl-benzamide], which IC50 is on record?
A: 686 nM

Q: `CON(C)C(=O)c1ccccc1Nc1cc(Nc2cnn(C3CCN(C)CC3)c2)ncc1Cl` [Example 3.20, 2-[[5-Chloro-2-[[1-(1-methyl-4-piperidyl)pyrazol-4-yl]amino]-4-pyridyl]amino]-N-methoxy-N-methyl-benzamide] was tested. Which IC50 did it give?
A: 1230 nM

Q: With `CON(C)C(=O)c1ccccc1Nc1cc(Nc2cn(C)nc2C)ncc1Cl` [Example 3.21, 2-[[5-chloro-2-[(1,3-dimethylpyrazol-4-yl)amino]-4-pyridyl]amino]-N-methoxy-N-methyl-benzamide] as the compound, how does the IC50 read?
A: 324 nM

Q: For `Cc1nn(C)cc1Nc1cc(Nc2cccc3c2C(=O)N(C)CCO3)c(Cl)cn1` [Example 3.22, 6-[[5-Chloro-2-[(1,3-dimethylpyrazol-4-yl)amino]-4-pyridyl]amino]-4-methyl-2,3-dihydro-1,4-benzoxazepin-5-one], which IC50 is on record?
A: 25 nM

Q: With `CN1CCc2cccc(Nc3cc(Nc4cnn(CC(=O)N5CCCC5)c4)ncc3Cl)c2C1=O` [Example 3.23, 8-[[5-Chloro-2-[[1-(2-oxo-2-pyrrolidin-1-yl-ethyl)pyrazol-4-yl]amino]-4-pyridyl]amino]-2-methyl-3,4-dihydroisoquinolin-1-one] as the compound, how does the IC50 read?
A: 20 nM

Q: With `COCCNC(=O)Cn1cc(Nc2cc(Nc3cccc4c3C(=O)N(C)CC4)c(Cl)cn2)cn1` [Example 3.24, 2-[4-[[5-chloro-4-[(2-methyl-1-oxo-3,4-dihydroisoquinolin-8-yl)amino]-2-pyridyl]amino]pyrazol-1-yl]-N-(2-methoxyethyl)acetamide] as the compound, how does the IC50 read?
A: 18 nM

Q: For `COCCN(C)C(=O)Cn1cc(Nc2cc(Nc3cccc4c3C(=O)N(C)CC4)c(Cl)cn2)cn1` [Example 3.25, 2-[4-[[5-chloro-4-[(2-methyl-1-oxo-3,4-dihydroisoquinolin-8-yl)amino]-2-pyridyl]amino]pyrazol-1-yl]-N-(2-methoxyethyl)-N-methyl-acetamide], which IC50 is on record?
A: 27 nM

Q: `CN(C)CCNC(=O)Cn1cc(Nc2cc(Nc3cccc4c3C(=O)N(C)CC4)c(Cl)cn2)cn1` [Example 3.26, 2-[4-[[5-chloro-4-[(2-methyl-1-oxo-3,4-dihydroisoquinolin-8-yl)amino]-2-pyridyl]amino]pyrazol-1-yl]-N-(2-dimethylaminoethyl)acetamide] was tested. Which IC50 did it give?
A: 38 nM

Q: `CN1CCc2cccc(Nc3cc(Nc4cnn(CC(=O)N5CCOCC5)c4)ncc3Cl)c2C1=O` [Example 3.27, 8-[[5-chloro-2-[[1-(2-morpholino-2-oxo-ethyl)pyrazol-4-yl]amino]-4-pyridyl]amino]-2-methyl-3,4-dihydroisoquinolin-1-one] was tested. Which IC50 did it give?
A: 11 nM

Q: `CN1CCc2cccc(Nc3cc(Nc4cnn(C)c4)ncc3Cl)c2C1=O` [Example 3.28, 8-[[5-Chloro-2-[(1-methylpyrazol-4-yl)amino]-4-pyridyl]amino]-2-methyl-3,4-dihydroisoquinolin-1-one] was tested. Which IC50 did it give?
A: 41 nM

Q: `CN1CCC(n2cc(Nc3cc(Nc4cccc5c4C(=O)N(C)CC5)c(Cl)cn3)cn2)CC1` [Example 3.29, 8-[[5-chloro-2-[[1-(1-methyl-4-piperidyl)pyrazol-4-yl]amino]-4-pyridyl]amino]-2-methyl-3,4-dihydroisoquinolin-1-one] was tested. Which IC50 did it give?
A: 118 nM
